Experimental data taken from ChEMBL document CHEMBL4507320, “Data for DCP probe NVS-MALT1” (2021).

Legend:
[1] = biological target: Receptor-type tyrosine-protein kinase FLT3 (Homo sapiens, UniProt P36888); conditions: Compound concentration 1000.0 nM
[2] = system: Tyrosine-protein kinase ABL1 (Homo sapiens), P00519 [Q252H]; conditions: Compound concentration 1000.0 nM
[3] = biological target: Cyclin-dependent kinase 16 (Homo sapiens) (UniProt Q00536); conditions: Compound concentration 1000.0 nM
[4] = biological target: Mitogen-activated protein kinase kinase kinase 13 (Homo sapiens) (UniProt O43283); conditions: Compound concentration 1000.0 nM
[5] = biological target: Dual specificity mitogen-activated protein kinase kinase 2 (Homo sapiens) (UniProt P36507); conditions: Compound concentration 1000.0 nM
[6] = biological target: Serine/threonine-protein kinase 35 (Homo sapiens) (UniProt Q8TDR2); conditions: Compound concentration 1000.0 nM
[7] = biological target: ALK tyrosine kinase receptor (Homo sapiens) (UniProt Q9UM73); conditions: Compound concentration 1000.0 nM
[8] = biological target: Serine/threonine-protein kinase RIO2 (Homo sapiens) (UniProt Q9BVS4); conditions: Compound concentration 1000.0 nM
[9] = biological target: Ribosomal protein S6 kinase alpha-1 (Homo sapiens) (UniProt Q15418); conditions: Compound concentration 1000.0 nM
[10] = biological target: Alpha-1D adrenergic receptor (Homo sapiens) (UniProt P25100); conditions: Compound concentration 10.0 uM
[11] = biological target: Serine/threonine-protein kinase Nek10 (Homo sapiens) (UniProt Q6ZWH5); conditions: Compound concentration 1000.0 nM
[12] = biological target: Interleukin-1 receptor-associated kinase 1 (Homo sapiens) (UniProt P51617); conditions: Compound concentration 1000.0 nM
[13] = biological target: Alpha-2A adrenergic receptor (Homo sapiens) (UniProt P08913); conditions: Compound concentration 10.0 uM
[14] = biological target: Mitogen-activated protein kinase kinase kinase kinase 4 (Homo sapiens) (UniProt O95819); conditions: Compound concentration 1000.0 nM
[15] = biological target: Serine/threonine-protein kinase RIO1 (Homo sapiens) (UniProt Q9BRS2); conditions: Compound concentration 1000.0 nM
[16] = system: Epidermal growth factor receptor (Homo sapiens), P00533 [UNDEFINED MUTATION]; conditions: Compound concentration 1000.0 nM
[17] = biological target: Dual specificity testis-specific protein kinase 1 (Homo sapiens) (UniProt Q15569); conditions: Compound concentration 1000.0 nM
[18] = biological target: Bone morphogenetic protein receptor type-1B (Homo sapiens) (UniProt O00238); conditions: Compound concentration 1000.0 nM
[19] = biological target: Bone morphogenetic protein receptor type-2 (Homo sapiens) (UniProt Q13873); conditions: Compound concentration 1000.0 nM
[20] = system: Tyrosine-protein kinase ABL1 (Homo sapiens), P00519 [Y253F]; conditions: Compound concentration 1000.0 nM
[21] = biological target: Tyrosine-protein kinase Fgr (Homo sapiens) (UniProt P09769); conditions: Compound concentration 1000.0 nM
[22] = biological target: MAP kinase-activated protein kinase 5 (Homo sapiens) (UniProt Q8IW41); conditions: Compound concentration 1000.0 nM
[23] = biological target: Serine/threonine-protein kinase SBK1 (Homo sapiens) (UniProt Q52WX2); conditions: Compound concentration 1000.0 nM
[24] = biological target: Eukaryotic translation initiation factor 2-alpha kinase 1 (Homo sapiens) (UniProt Q9BQI3); conditions: Compound concentration 1000.0 nM
[25] = biological target: Transient receptor potential cation channel subfamily M member 6 (Homo sapiens) (UniProt Q9BX84); conditions: Compound concentration 1000.0 nM
[26] = biological target: Tyrosine-protein kinase TXK (Homo sapiens) (UniProt P42681); conditions: Compound concentration 1000.0 nM
[27] = biological target: Homeodomain-interacting protein kinase 3 (Homo sapiens) (UniProt Q9H422); conditions: Compound concentration 1000.0 nM
[28] = system: Tyrosine-protein kinase ABL1 (Homo sapiens), P00519 [M351T]; conditions: Compound concentration 1000.0 nM
[29] = biological target: Phosphatidylinositol 4,5-bisphosphate 3-kinase catalytic subunit gamma isoform (Homo sapiens) (UniProt P48736); conditions: Compound concentration 1000.0 nM
[30] = biological target: Ribosomal protein S6 kinase alpha-6 (Homo sapiens) (UniProt Q9UK32); conditions: Compound concentration 1000.0 nM
[31] = system: Tyrosine-protein kinase ABL1 (Homo sapiens), P00519 [F317I]; conditions: Compound concentration 1000.0 nM
[32] = system: Hepatocyte growth factor receptor (Homo sapiens), P08581 [M1250T]; conditions: Compound concentration 1000.0 nM
[33] = biological target: Interleukin-1 receptor-associated kinase 3 (Homo sapiens) (UniProt Q9Y616); conditions: Compound concentration 1000.0 nM
[34] = biological target: Beta-adrenergic receptor kinase 1 (Homo sapiens) (UniProt P25098); conditions: Compound concentration 1000.0 nM
[35] = biological target: Mitogen-activated protein kinase kinase kinase 14 (Homo sapiens) (UniProt Q99558); conditions: Compound concentration 1000.0 nM
[36] = biological target: Serine/threonine-protein kinase D3 (Homo sapiens) (UniProt O94806); conditions: Compound concentration 1000.0 nM
[37] = biological target: Serine/threonine-protein kinase 38 (Homo sapiens) (UniProt Q15208); conditions: Compound concentration 1000.0 nM
[38] = biological target: Cyclin-dependent kinase 17 (Homo sapiens) (UniProt Q00537); conditions: Compound concentration 1000.0 nM
[39] = biological target: Wee1-like protein kinase 2 (Homo sapiens) (UniProt P0C1S8); conditions: Compound concentration 1000.0 nM
[40] = biological target: Serine/threonine-protein kinase DCLK1 (Homo sapiens) (UniProt O15075); conditions: Compound concentration 1000.0 nM
[41] = biological target: Non-receptor tyrosine-protein kinase TYK2 (Homo sapiens) (UniProt P29597); conditions: Compound concentration 1000.0 nM
[42] = system: Tyrosine-protein kinase ABL1 (Homo sapiens), P00519 [F317I]; conditions: Compound concentration 1000.0 nM; remark: listed apart in the source
[43] = biological target: 5-hydroxytryptamine receptor 2B (Homo sapiens) (UniProt P41595); conditions: Compound concentration 10.0 uM
[44] = biological target: Ribosomal protein S6 kinase alpha-4 (Homo sapiens) (UniProt O75676); conditions: Compound concentration 1000.0 nM
[45] = biological target: Fibroblast growth factor receptor 1 (Homo sapiens) (UniProt P11362); conditions: Compound concentration 1000.0 nM

Sequence of Cyclin-dependent kinase 16 (Homo sapiens) (Q00536 whole entry): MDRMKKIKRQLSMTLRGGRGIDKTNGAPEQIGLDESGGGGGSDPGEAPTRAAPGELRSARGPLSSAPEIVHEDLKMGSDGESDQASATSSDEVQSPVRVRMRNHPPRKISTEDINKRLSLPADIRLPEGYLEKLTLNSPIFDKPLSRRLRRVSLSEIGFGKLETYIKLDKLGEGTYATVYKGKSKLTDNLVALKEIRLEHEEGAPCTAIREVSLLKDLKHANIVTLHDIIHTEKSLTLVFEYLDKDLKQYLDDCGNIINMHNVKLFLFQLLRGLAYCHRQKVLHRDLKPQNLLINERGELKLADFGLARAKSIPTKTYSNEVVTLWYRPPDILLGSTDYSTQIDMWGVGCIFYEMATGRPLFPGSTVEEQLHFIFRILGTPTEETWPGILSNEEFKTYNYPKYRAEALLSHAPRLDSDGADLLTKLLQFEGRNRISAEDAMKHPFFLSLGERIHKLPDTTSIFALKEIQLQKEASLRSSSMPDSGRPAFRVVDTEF
Sequence of Dual specificity mitogen-activated protein kinase kinase 2 (Homo sapiens) (P36507 whole entry): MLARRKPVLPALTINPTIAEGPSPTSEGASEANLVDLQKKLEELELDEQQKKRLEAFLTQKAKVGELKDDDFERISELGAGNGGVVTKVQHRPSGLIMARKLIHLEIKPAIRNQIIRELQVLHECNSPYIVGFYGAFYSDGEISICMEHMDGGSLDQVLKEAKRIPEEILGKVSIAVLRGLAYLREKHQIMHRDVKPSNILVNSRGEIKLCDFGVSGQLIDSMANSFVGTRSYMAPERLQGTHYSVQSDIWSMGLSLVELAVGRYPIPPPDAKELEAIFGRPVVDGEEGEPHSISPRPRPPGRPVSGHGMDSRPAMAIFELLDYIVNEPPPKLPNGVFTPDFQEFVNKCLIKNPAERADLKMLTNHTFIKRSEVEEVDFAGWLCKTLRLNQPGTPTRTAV
Sequence of MAP kinase-activated protein kinase 5 (Homo sapiens) (Q8IW41 whole entry): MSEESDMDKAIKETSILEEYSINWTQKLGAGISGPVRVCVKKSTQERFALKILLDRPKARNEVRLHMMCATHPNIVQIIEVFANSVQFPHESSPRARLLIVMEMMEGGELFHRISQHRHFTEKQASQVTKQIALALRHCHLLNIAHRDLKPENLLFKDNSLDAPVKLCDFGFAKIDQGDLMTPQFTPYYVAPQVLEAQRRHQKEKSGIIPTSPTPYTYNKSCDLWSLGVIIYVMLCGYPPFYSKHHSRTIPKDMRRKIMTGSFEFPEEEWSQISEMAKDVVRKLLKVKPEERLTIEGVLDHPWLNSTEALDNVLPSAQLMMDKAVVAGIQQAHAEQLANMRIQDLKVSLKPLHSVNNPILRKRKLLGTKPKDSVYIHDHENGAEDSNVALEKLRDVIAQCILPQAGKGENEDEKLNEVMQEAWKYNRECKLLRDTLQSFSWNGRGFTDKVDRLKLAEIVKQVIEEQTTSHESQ
Sequence of Phosphatidylinositol 4,5-bisphosphate 3-kinase catalytic subunit gamma isoform (Homo sapiens) (P48736 whole entry, looked up, canonical isoform): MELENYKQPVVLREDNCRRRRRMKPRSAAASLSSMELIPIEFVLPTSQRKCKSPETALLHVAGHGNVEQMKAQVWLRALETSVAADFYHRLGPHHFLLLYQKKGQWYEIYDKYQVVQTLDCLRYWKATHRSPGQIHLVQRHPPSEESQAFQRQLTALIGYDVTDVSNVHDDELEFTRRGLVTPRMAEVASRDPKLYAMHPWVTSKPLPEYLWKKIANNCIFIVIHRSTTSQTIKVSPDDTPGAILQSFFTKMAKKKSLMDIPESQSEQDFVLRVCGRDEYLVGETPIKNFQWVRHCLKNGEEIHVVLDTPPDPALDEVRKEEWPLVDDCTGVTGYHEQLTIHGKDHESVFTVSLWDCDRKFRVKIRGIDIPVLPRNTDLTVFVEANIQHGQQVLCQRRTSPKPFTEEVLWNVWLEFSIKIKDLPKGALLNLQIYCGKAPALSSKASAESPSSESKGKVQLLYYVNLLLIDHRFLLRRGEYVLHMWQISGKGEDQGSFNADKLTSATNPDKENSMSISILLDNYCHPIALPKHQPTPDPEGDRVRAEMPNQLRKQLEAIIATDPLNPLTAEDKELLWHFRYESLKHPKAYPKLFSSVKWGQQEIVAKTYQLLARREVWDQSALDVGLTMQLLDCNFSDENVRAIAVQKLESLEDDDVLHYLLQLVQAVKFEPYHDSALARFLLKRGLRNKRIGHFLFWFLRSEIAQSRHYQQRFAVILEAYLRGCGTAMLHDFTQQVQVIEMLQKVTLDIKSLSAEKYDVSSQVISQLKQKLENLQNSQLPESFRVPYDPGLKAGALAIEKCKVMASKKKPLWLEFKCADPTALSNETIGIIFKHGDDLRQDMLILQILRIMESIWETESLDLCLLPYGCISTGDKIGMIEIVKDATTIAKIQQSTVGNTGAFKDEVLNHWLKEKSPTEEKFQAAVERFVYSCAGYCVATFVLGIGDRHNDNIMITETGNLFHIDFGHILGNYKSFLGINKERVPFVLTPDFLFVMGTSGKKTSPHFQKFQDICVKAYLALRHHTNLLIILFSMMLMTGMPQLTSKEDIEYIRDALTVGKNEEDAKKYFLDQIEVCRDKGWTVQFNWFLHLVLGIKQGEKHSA
Sequence of Serine/threonine-protein kinase DCLK1 (Homo sapiens) (O15075 whole entry): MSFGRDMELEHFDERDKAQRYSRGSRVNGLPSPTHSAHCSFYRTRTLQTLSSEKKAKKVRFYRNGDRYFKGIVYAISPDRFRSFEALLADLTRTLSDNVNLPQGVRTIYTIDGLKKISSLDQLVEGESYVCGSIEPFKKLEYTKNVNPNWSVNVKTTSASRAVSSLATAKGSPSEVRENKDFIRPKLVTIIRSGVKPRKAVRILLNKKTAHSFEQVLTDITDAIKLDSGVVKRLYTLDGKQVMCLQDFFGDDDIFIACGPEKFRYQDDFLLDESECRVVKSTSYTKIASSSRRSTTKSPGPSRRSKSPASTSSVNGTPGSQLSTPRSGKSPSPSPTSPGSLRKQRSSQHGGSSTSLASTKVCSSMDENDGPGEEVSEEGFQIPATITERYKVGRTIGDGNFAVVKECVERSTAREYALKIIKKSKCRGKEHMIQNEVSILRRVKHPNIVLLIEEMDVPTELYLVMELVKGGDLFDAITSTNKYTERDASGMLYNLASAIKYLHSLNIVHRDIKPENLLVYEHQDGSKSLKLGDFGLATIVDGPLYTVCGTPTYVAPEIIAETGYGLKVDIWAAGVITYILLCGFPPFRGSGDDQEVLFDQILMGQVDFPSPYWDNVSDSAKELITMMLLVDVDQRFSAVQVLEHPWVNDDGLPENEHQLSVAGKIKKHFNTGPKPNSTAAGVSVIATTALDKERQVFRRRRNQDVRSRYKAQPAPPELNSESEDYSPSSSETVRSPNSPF
Sequence of Eukaryotic translation initiation factor 2-alpha kinase 1 (Homo sapiens) (Q9BQI3 whole entry): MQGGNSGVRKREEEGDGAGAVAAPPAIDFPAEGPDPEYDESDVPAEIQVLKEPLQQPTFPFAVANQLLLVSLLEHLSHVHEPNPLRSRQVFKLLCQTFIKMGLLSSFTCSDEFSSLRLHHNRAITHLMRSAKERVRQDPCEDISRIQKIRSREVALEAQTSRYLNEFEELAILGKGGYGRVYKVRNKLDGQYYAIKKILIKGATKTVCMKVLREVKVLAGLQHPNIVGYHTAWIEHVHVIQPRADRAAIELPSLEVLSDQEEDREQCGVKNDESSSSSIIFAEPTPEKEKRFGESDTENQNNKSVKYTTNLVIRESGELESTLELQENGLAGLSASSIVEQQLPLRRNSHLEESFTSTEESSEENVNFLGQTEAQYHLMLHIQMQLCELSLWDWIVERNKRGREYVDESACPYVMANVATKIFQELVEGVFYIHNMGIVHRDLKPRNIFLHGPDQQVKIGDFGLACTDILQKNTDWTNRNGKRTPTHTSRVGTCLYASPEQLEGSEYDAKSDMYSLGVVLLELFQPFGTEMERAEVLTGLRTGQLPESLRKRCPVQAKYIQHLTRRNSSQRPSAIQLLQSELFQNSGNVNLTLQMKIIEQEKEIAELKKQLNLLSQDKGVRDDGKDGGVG
Sequence of Cyclin-dependent kinase 17 (Homo sapiens) (Q00537 whole entry, looked up): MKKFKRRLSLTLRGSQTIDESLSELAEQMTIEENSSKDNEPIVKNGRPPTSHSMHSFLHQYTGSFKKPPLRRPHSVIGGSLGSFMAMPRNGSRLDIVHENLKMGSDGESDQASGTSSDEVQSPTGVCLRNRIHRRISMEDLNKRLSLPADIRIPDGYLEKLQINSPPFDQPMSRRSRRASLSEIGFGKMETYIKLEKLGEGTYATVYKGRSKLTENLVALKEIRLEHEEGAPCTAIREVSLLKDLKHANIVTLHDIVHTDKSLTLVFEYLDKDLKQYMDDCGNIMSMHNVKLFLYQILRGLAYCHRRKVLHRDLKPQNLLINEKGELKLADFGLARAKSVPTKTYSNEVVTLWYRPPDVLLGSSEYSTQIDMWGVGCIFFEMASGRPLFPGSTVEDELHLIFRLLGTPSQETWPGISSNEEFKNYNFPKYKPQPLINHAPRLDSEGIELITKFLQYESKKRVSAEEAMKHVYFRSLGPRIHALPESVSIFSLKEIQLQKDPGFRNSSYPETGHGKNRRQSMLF
Sequence of Serine/threonine-protein kinase 35 (Homo sapiens) (Q8TDR2 whole entry): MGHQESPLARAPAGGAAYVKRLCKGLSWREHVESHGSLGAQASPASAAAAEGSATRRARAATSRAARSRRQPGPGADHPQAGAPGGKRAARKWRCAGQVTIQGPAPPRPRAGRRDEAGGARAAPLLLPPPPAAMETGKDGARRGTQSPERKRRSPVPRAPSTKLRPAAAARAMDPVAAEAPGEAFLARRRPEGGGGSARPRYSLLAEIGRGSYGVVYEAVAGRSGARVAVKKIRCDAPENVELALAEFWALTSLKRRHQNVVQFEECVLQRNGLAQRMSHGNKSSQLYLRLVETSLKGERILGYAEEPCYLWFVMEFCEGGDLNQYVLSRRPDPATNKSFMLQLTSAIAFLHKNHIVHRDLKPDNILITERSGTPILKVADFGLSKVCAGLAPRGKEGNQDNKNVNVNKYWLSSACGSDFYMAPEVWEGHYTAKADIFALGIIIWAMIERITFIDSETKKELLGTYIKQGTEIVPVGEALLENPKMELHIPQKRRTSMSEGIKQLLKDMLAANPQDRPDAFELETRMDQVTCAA

CO[C@@H](C)c1c(Nc2ccc([C@@H](N(C)C(=O)C3CCS(=O)(=O)CC3)C(F)(F)F)cc2)cnc2cc(Cl)nn12 [NVS-MALT1-C]
inactive: residual activity [1] 64% | residual activity [2] 100% | residual activity [3] 72% | residual activity [4] 100% | residual activity [5] 97% | residual activity [6] 90% | residual activity [7] 100% | residual activity [8] 89% | residual activity [9] 99% | inhibition [10] 3.2% | residual activity [11] 100% | residual activity [12] 82% | inhibition [13] 5.1% | residual activity [14] 100% | residual activity [15] 91% | residual activity [16] 93% | residual activity [17] 83% | residual activity [18] 100% | residual activity [19] 84% | residual activity [20] 100% | residual activity [21] 100% | residual activity [22] 100% | residual activity [23] 100% | residual activity [24] 100% | residual activity [25] 100% | residual activity [26] 84% | residual activity [27] 100% | residual activity [28] 59% | residual activity [29] 87% | residual activity [30] 98% | residual activity [31] 100% | residual activity [32] 100% | residual activity [33] 86% | residual activity [34] 92% | residual activity [35] 90% | residual activity [36] 93% | residual activity [37] 88% | residual activity [38] 100% | residual activity [39] 100% | residual activity [40] 75% | residual activity [41] 100% | residual activity [42] 100% | inhibition [43] 9.74% | residual activity [44] 100% | residual activity [45] 91%

CO[C@@H](C)c1c(Nc2ccc([C@H](N(C)C(=O)C3CCS(=O)(=O)CC3)C(F)(F)F)cc2)cnc2cc(Cl)nn12 [NVS-MALT1]
inactive: residual activity [1] 68% | residual activity [2] 100% | residual activity [3] 66% | residual activity [4] 78% | residual activity [5] 96% | residual activity [6] 80% | residual activity [7] 100% | residual activity [8] 90% | residual activity [9] 91% | inhibition [10] -6.69% | residual activity [11] 100% | residual activity [12] 93% | inhibition [13] 14.6% | residual activity [14] 100% | residual activity [15] 85% | residual activity [16] 100% | residual activity [17] 85% | residual activity [18] 100% | residual activity [19] 91% | residual activity [20] 100% | residual activity [21] 100% | residual activity [22] 100% | residual activity [23] 100% | residual activity [24] 100% | residual activity [25] 100% | residual activity [26] 87% | residual activity [27] 100% | residual activity [28] 65% | residual activity [29] 83% | residual activity [30] 91% | residual activity [31] 100% | residual activity [32] 92% | residual activity [33] 68% | residual activity [34] 84% | residual activity [35] 94% | residual activity [36] 85% | residual activity [37] 83% | residual activity [38] 75% | residual activity [39] 88% | residual activity [40] 72% | residual activity [41] 100% | residual activity [42] 100% | inhibition [43] -3.94% | residual activity [44] 100% | residual activity [45] 74%
